20 compounds from patent US20080021026A1, “BENZOTHIOPHENE INHIBITORS OF RHO KINASE” (priority 2006, published 2008) can be followed below.

The structures appear in SMILES notation. Where only a bound is given, the exact number is not on record here.

For this assay, the target named is T1, recombinant N-terminal GST-tagged human Rho kinase 2 (ROCK2, amino acids 1-552) (Homo sapiens, UniProt O75116).
T1 construct: ROCK2, amino acids 1-552; purchased Invitrogen Inc. PV3759
T1 sequence (O75116 1-552): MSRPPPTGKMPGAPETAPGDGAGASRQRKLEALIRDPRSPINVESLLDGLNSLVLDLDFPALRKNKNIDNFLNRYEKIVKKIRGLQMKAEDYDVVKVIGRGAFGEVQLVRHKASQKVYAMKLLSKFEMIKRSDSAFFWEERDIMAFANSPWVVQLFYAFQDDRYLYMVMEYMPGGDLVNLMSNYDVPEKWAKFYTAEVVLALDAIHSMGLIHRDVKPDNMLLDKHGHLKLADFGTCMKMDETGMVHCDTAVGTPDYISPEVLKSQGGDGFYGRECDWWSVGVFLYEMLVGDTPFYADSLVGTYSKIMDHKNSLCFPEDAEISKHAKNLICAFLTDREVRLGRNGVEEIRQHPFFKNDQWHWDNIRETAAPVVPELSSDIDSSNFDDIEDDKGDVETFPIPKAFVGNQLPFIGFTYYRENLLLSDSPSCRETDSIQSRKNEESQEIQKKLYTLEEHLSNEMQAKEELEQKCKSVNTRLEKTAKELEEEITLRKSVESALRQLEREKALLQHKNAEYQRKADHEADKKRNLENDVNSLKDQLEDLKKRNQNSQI
The assay can be described thus: In vitro Rho kinase assay (luciferase-based ATP consumption), ROCK2. In kind it is biochemical. The conditions noted are these: recombinant GST-tagged human ROCK2, luciferase-based ATP consumption; read-out: ROCK2 IC50. As for the experimental part: In Vitro Rho Kinase Assay
Rho kinase biochemical assays described below depend on firefly luciferase-based, indirect measurement of total ATP consumption by the kinase following incubation with substrate and ATP. 25 μl of Rho kinase assay buffer (20 mM Tris-HCL [pH 7.5], 1 mM MgCl2, 0.4 mM CaCl2, 0.15 mM EGTA, 0.1 mg/ml bovine serum albumin) containing 0.82 μg/ml of recombinant N-terminal GST-tagged human Rho kinase 1 (ROCK1, amino acids 1-535, Invitrogen Inc., cat. #PV-3691) or recombinant N-terminal GST-tagged human Rho kinase 2 (ROCK2, amino acids 1-552, Invitrogen Inc., cat #PV3759), 100 μg/ml S6 peptide substrate (related to amino acids 218-249 of the human 40S ribosomal protein S6, and suitable for ROCK1 or ROCK2, e.g. Upstate/Millipore Inc., cat #12-420), and 3 µM ATP are dispensed to wells of a 384 multi-well opaque plate. The plate is centrifuged for 30 seconds at approximately 200×g. 240 nl of test compound in DMSO is dispensed to each well by passive pin transfer. The lag phase of this in vitro kinase reaction permits addition of compounds soon after the reaction initiates. The reaction is allowed to incubate at 30° C. for 2 hours. The assay plates are sealed and maintained in a humidified environment. After 2 hours, 25 μl of easylite protein kinase assay reagent (Perkin-Elmer, Inc.) is dispensed. After an additional 10 minute incubation at room temperature (about 22° C.), luminescence activity is measured on a Molecular Devices Analyst multi-mode plate reader or other suitable plate reader. Kinase inhibition results in less ATP consumption, and therefore increased luminescence signal. Negative control activity is measured with DMSO lacking any test compound. The positive control is 2-methyl-1-(4-methylisoquinolin-5-ylsulfonyl)perhydro-1,4-diazepine hydrochloride (aka H-1152P, HCl salt). Efficacy is measured as a percentage of positive control activity. […] In some cases, kinase reactions and compound testing are performed in 1536 multi-well plates under similar conditions, with assay volumes appropriately scaled. The designation NT means the cited example was not tested.
The term IC50 denotes the concentration that gives 50% inhibition. Take `Cc1c(-c2ccnc(N)n2)sc2ccc(C(=O)NCCN3CCCC3)cc12` [Example 372, Cc1c(sc2ccc(cc12)C(═O)NCCN3CCCC3)-c4ccnc(N)n4]: the IC50 is less than 5 µM. For the compound `Cc1c(-c2ccnc(N)n2)sc2ccc(C(=O)NN3CCN(C)CC3)cc12` [Example 373, CN1CCN(CC1)NC(═O)c2ccc3sc(c(C)c3c2)-c4ccnc(N)n4], the IC50 is less than 5 µM. The result for `CCN(CC)CCNC(=O)c1ccc2sc(-c3ccnc(N)n3)c(C)c2c1` [Example 374, CCN(CC)CCNC(═O)c1ccc2sc(c(C)c2c1)-c3ccnc(N)n3] reads less than 5 µM; that for `Cc1cccc(CNC(=O)c2ccc3sc(-c4ccnc(N)n4)c(C)c3c2)c1` [Example 375, Cc1cccc(CNC(═O)c2ccc3sc(c(C)c3c2)-c4ccnc(N)n4)c1], less than 5 µM. The result for `Cc1c(-c2ccnc(N)n2)sc2ccc(C(=O)N[C@@H](C)c3ccccc3)cc12` [Example 376, C[C@H](NC(═O)c1ccc2sc(c(C)c2c1)-c3ccnc(N)n3)c4ccccc4] reads less than 5 µM; that for `Cc1c(-c2ccnc(N)n2)sc2ccc(C(=O)N[C@H](C)c3ccccc3)cc12` [Example 377, C[C@@H](NC(═O)c1ccc2sc(c(C)c2c1)-c3ccnc(N)n3)c4ccccc4], less than 5 µM. Take `Cc1c(-c2ccnc(N)n2)sc2ccc(C(=O)NCCc3ccccc3)cc12` [Example 378, Cc1c(sc2ccc(cc12)C(═O)NCCc3ccccc3)-c4ccnc(N)n4]: the half-maximal inhibitory concentration (IC50) was less than 5 µM. Consider `Cc1ccccc1CNC(=O)c1ccc2sc(-c3ccnc(N)n3)c(C)c2c1` [Example 379, Cc1ccccc1CNC(═O)c2ccc3sc(c(C)c3c2)-c4ccnc(N)n4], for which the IC50 is less than 5 µM.

As to `Cc1ccc(CNC(=O)c2ccc3sc(-c4ccnc(N)n4)c(C)c3c2)cc1` [Example 380, Cc1ccc(CNC(═O)c2ccc3sc(c(C)c3c2)-c4ccnc(N)n4)cc1], the IC50 is less than 5 µM. The result for `Cc1cnc(CNC(=O)c2ccc3sc(-c4ccnc(N)n4)c(C)c3c2)cn1` [Example 381, Cc1cnc(CNC(═O)c2ccc3sc(c(C)c3c2)-c4ccnc(N)n4)cn1] reads less than 5 µM; that for `Cc1c(-c2ccnc(N)n2)sc2ccc(C(=O)NCc3cccc(F)c3)cc12` [Example 382, Cc1c(sc2ccc(cc12)C(═O)NCc3cccc(F)c3)-c4ccnc(N)n4], less than 5 µM. The result for `Cc1c(-c2ccnc(N)n2)sc2ccc(C(=O)NCc3ccc(F)cc3)cc12` [Example 383, Cc1c(sc2ccc(cc12)C(═O)NCc3ccc(F)cc3)-c4ccnc(N)n4] reads less than 5 µM. In the case of `Cc1c(-c2ccnc(N)n2)sc2ccc(C(=O)NCc3ccccc3F)cc12` [Example 384, Cc1c(sc2ccc(cc12)C(═O)NCc3ccccc3F)-c4ccnc(N)n4] it was less than 5 µM; in that of `Cc1c(-c2ccnc(N)n2)sc2ccc(C(=O)NCCCn3ccnc3)cc12` [Example 385, Cc1c(sc2ccc(cc12)C(═O)NCCCn3ccnc3)-c4ccnc(N)n4], less than 5 µM.

Regarding `Cc1c(-c2ccnc(N)n2)sc2ccc(C(=O)NCCC3CCCN3C)cc12` (centres unmarked) [Example 386, CN1CCCC1CCNC(═O)c2ccc3sc(c(C)c3c2)-c4ccnc(N)n4], the IC50 was less than 5 µM. The result for `Cc1c(-c2ccnc(N)n2)sc2ccc(C(=O)NCCN3CCCCC3)cc12` [Example 387, Cc1c(sc2ccc(cc12)C(═O)NCCN3CCCCC3)-c4ccnc(N)n4] reads less than 5 µM; that for `Cc1c(-c2ccnc(N)n2)sc2ccc(C(=O)NC(C)CCCC(C)C)cc12` (centres unmarked) [Example 388, CC(C)CCCC(C)NC(═O)c1ccc2sc(c(C)c2c1)-c3ccnc(N)n3], more than 5 µM. Take `Cc1c(-c2ccnc(N)n2)sc2ccc(C(=O)NCCN3CCOCC3)cc12` [Example 389, Cc1c(sc2ccc(cc12)C(═O)NCCN3CCOCC3)-c4ccnc(N)n4]: the IC50 is less than 5 µM.

For the compound `CCOC(=O)CC(C)NC(=O)c1ccc2sc(-c3ccnc(N)n3)c(C)c2c1` (centres unmarked) [Example 390, CCOC(═O)CC(C)NC(═O)c1ccc2sc(c(C)c2c1)-c3ccnc(N)n3], the IC50 was less than 5 µM.

`Cc1c(-c2ccnc(N)n2)sc2ccc(C(=O)NC3CCc4ccccc43)cc12` (centres unmarked) [Example 391, Cc1c(sc2ccc(cc12)C(═O)NC3CCc4ccccc34)-c5ccnc(N)n5]: the 50% inhibitory concentration (IC50) is less than 5 µM.
